PubChem BioAssay (NCI)
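Compound exposure: 48 hours, 5 concentrations, 96-well plates. TGI denotes the concentration required for complete inhibition of growth.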

Experiments:
Experiment in all cases: inhibition of tumour cell growth, NCI panel, 48 h
OVCAR-3 ovarian = tested on: OVCAR-3 ovarian
LOX IMVI melanoma = tested on: LOX IMVI melanoma
SK-MEL-28 melanoma = tested on: SK-MEL-28 melanoma
SR leukemia = tested on: SR leukemia
HOP-62 NSCLC = tested on: HOP-62 NSCLC
NCI/ADR-RES ovarian = tested on: NCI/ADR-RES ovarian
NCI-H460 lung = tested on: NCI-H460 lung
HS 578T breast = tested on: HS 578T breast
M14 melanoma = tested on: M14 melanoma
UO-31 renal = tested on: UO-31 renal
HCT-15 colon = tested on: HCT-15 colon
MALME-3M melanoma = tested on: MALME-3M melanoma
SK-OV-3 ovarian = tested on: SK-OV-3 ovarian
MCF7 breast = tested on: MCF7 breast
OVCAR-4 ovarian = tested on: OVCAR-4 ovarian
COLO 205 colon = tested on: COLO 205 colon
OVCAR-5 ovarian = tested on: OVCAR-5 ovarian
U251 CNS = tested on: U251 CNS
NCI-H226 lung = tested on: NCI-H226 lung
RXF 393 renal = tested on: RXF 393 renal
MDA-MB-435 = tested on: MDA-MB-435
SF-295 CNS = tested on: SF-295 CNS
MDA-N = tested on: MDA-N
KM12 colon = tested on: KM12 colon
SF-268 CNS = tested on: SF-268 CNS
DU-145 prostate = tested on: DU-145 prostate
HT29 colon = tested on: HT29 colon
ACHN renal = tested on: ACHN renal
SW-620 colon = tested on: SW-620 colon
EKVX NSCLC = tested on: EKVX NSCLC
T-47D breast = tested on: T-47D breast
PC-3 prostate = tested on: PC-3 prostate
HCC-2998 colon = tested on: HCC-2998 colon
HCT-116 colon = tested on: HCT-116 colon
IGROV1 ovarian = tested on: IGROV1 ovarian
CAKI-1 renal = tested on: CAKI-1 renal
A549 NSCLC = tested on: A549 NSCLC
BT-549 breast = tested on: BT-549 breast
SNB-19 CNS = tested on: SNB-19 CNS
TK-10 renal = tested on: TK-10 renal
MOLT-4 leukemia = tested on: MOLT-4 leukemia
UACC-257 melanoma = tested on: UACC-257 melanoma
K-562 leukemia = tested on: K-562 leukemia
A498 renal = tested on: A498 renal
UACC-62 melanoma = tested on: UACC-62 melanoma
NCI-H23 lung = tested on: NCI-H23 lung
NCI-H522 lung = tested on: NCI-H522 lung
MDA-MB-231 breast = tested on: MDA-MB-231 breast
CCRF-CEM leukemia = tested on: CCRF-CEM leukemia
SN12C renal = tested on: SN12C renal
SK-MEL-5 melanoma = tested on: SK-MEL-5 melanoma
HOP-92 NSCLC = tested on: HOP-92 NSCLC
SNB-75 CNS = tested on: SNB-75 CNS
786-0 renal = tested on: 786-0 renal
OVCAR-8 ovarian = tested on: OVCAR-8 ovarian
SF-539 CNS = tested on: SF-539 CNS
HL-60(TB) leukemia = tested on: HL-60(TB) leukemia
RPMI-8226 leukemia = tested on: RPMI-8226 leukemia
SK-MEL-2 melanoma = tested on: SK-MEL-2 melanoma

Question: `CN1COCc2c1ccc1cc3ccc4c(c3nc21)COCN4S(C)(=O)=O` was tested. Which TGI (OVCAR-3 ovarian) did it give?
Answer: > 100 µM

Question: And the TGI (LOX IMVI melanoma)?
Answer: > 100 µM

Question: And the TGI (SK-MEL-28 melanoma)?
Answer: > 100 µM

Question: And the TGI (SR leukemia)?
Answer: > 100 µM

Question: And the TGI (HOP-62 NSCLC)?
Answer: > 100 µM

Question: And the TGI (NCI/ADR-RES ovarian)?
Answer: > 100 µM

Question: What about the TGI (NCI-H460 lung) of the same compound?
Answer: > 100 µM

Question: What about the TGI (HS 578T breast) of the same compound?
Answer: > 100 µM

Question: What about the TGI (M14 melanoma) of the same compound?
Answer: > 100 µM

Question: And the TGI (UO-31 renal)?
Answer: > 100 µM

Question: What about the TGI (HCT-15 colon) of the same compound?
Answer: > 100 µM

Question: What about the TGI (MALME-3M melanoma) of the same compound?
Answer: > 100 µM

Question: What about the TGI (SK-OV-3 ovarian) of the same compound?
Answer: > 100 µM

Question: What about the TGI (MCF7 breast) of the same compound?
Answer: > 100 µM

Question: What about the TGI (OVCAR-4 ovarian) of the same compound?
Answer: > 100 µM

Question: What about the TGI (COLO 205 colon) of the same compound?
Answer: > 100 µM

Question: What about the TGI (OVCAR-5 ovarian) of the same compound?
Answer: > 100 µM

Question: What about the TGI (U251 CNS) of the same compound?
Answer: > 100 µM

Question: What about the TGI (NCI-H226 lung) of the same compound?
Answer: > 100 µM

Question: What about the TGI (RXF 393 renal) of the same compound?
Answer: > 100 µM

Question: What about the TGI (MDA-MB-435) of the same compound?
Answer: > 100 µM

Question: And the TGI (SF-295 CNS)?
Answer: > 100 µM

Question: And the TGI (MDA-N)?
Answer: > 100 µM

Question: What about the TGI (KM12 colon) of the same compound?
Answer: > 100 µM

Question: What about the TGI (SF-268 CNS) of the same compound?
Answer: > 100 µM

Question: What about the TGI (DU-145 prostate) of the same compound?
Answer: > 100 µM

Question: And the TGI (HT29 colon)?
Answer: > 100 µM

Question: What about the TGI (ACHN renal) of the same compound?
Answer: > 100 µM

Question: And the TGI (SW-620 colon)?
Answer: > 100 µM

Question: What about the TGI (EKVX NSCLC) of the same compound?
Answer: > 100 µM

Question: And the TGI (T-47D breast)?
Answer: > 100 µM

Question: And the TGI (PC-3 prostate)?
Answer: > 100 µM

Question: And the TGI (HCC-2998 colon)?
Answer: > 100 µM

Question: And the TGI (HCT-116 colon)?
Answer: > 100 µM

Question: What about the TGI (IGROV1 ovarian) of the same compound?
Answer: > 100 µM

Question: And the TGI (CAKI-1 renal)?
Answer: > 100 µM

Question: And the TGI (A549 NSCLC)?
Answer: > 100 µM

Question: What about the TGI (BT-549 breast) of the same compound?
Answer: > 100 µM

Question: What about the TGI (SNB-19 CNS) of the same compound?
Answer: > 100 µM

Question: And the TGI (TK-10 renal)?
Answer: > 100 µM

Question: And the TGI (MOLT-4 leukemia)?
Answer: > 100 µM

Question: And the TGI (UACC-257 melanoma)?
Answer: > 100 µM

Question: And the TGI (K-562 leukemia)?
Answer: > 100 µM

Question: And the TGI (A498 renal)?
Answer: > 100 µM

Question: What about the TGI (UACC-62 melanoma) of the same compound?
Answer: > 100 µM

Question: What about the TGI (NCI-H23 lung) of the same compound?
Answer: > 100 µM

Question: What about the TGI (NCI-H522 lung) of the same compound?
Answer: > 100 µM

Question: What about the TGI (MDA-MB-231 breast) of the same compound?
Answer: > 100 µM

Question: And the TGI (CCRF-CEM leukemia)?
Answer: > 100 µM

Question: What about the TGI (SN12C renal) of the same compound?
Answer: > 100 µM

Question: What about the TGI (SK-MEL-5 melanoma) of the same compound?
Answer: > 100 µM

Question: What about the TGI (HOP-92 NSCLC) of the same compound?
Answer: > 100 µM

Question: What about the TGI (SNB-75 CNS) of the same compound?
Answer: 67.5 µM

Question: What about the TGI (786-0 renal) of the same compound?
Answer: > 100 µM

Question: And the TGI (OVCAR-8 ovarian)?
Answer: > 100 µM

Question: How did the TGI (OVCAR-3 ovarian) turn out when `N#CC1=C(N)N(c2ccccc2)C(c2ccccc2)C1(C#N)C#N` (configuration not stated) was run?
Answer: 34.6 µM

Question: What about the TGI (LOX IMVI melanoma) of the same compound?
Answer: 30.3 µM

Question: What about the TGI (SK-MEL-28 melanoma) of the same compound?
Answer: 31.1 µM

Question: What about the TGI (SF-539 CNS) of the same compound?
Answer: 32.5 µM

Question: And the TGI (SR leukemia)?
Answer: 40.5 µM

Question: And the TGI (HOP-62 NSCLC)?
Answer: 36.8 µM

Question: What about the TGI (NCI/ADR-RES ovarian) of the same compound?
Answer: 45.3 µM

Question: What about the TGI (HS 578T breast) of the same compound?
Answer: > 100 µM

Question: And the TGI (M14 melanoma)?
Answer: 44.9 µM

Question: And the TGI (UO-31 renal)?
Answer: 34.8 µM

Question: And the TGI (HCT-15 colon)?
Answer: 51.1 µM

Question: What about the TGI (MALME-3M melanoma) of the same compound?
Answer: 35.6 µM

Question: What about the TGI (SK-OV-3 ovarian) of the same compound?
Answer: 78.4 µM

Question: What about the TGI (MCF7 breast) of the same compound?
Answer: 31.7 µM

Question: What about the TGI (HL-60(TB) leukemia) of the same compound?
Answer: 43.9 µM

Question: What about the TGI (OVCAR-4 ovarian) of the same compound?
Answer: 51.1 µM

Question: What about the TGI (COLO 205 colon) of the same compound?
Answer: 36.1 µM

Question: And the TGI (OVCAR-5 ovarian)?
Answer: 37.3 µM

Question: What about the TGI (U251 CNS) of the same compound?
Answer: 32.4 µM

Question: And the TGI (NCI-H226 lung)?
Answer: 36.2 µM

Question: And the TGI (RXF 393 renal)?
Answer: 33.6 µM

Question: And the TGI (MDA-MB-435)?
Answer: 35.6 µM

Question: And the TGI (SF-295 CNS)?
Answer: 61.1 µM

Question: And the TGI (MDA-N)?
Answer: 41 µM

Question: And the TGI (KM12 colon)?
Answer: 30.9 µM

Question: And the TGI (SF-268 CNS)?
Answer: 55.4 µM

Question: What about the TGI (DU-145 prostate) of the same compound?
Answer: 32.9 µM

Question: What about the TGI (HT29 colon) of the same compound?
Answer: 30.2 µM

Question: What about the TGI (ACHN renal) of the same compound?
Answer: 40.7 µM

Question: What about the TGI (SW-620 colon) of the same compound?
Answer: 37.2 µM

Question: What about the TGI (EKVX NSCLC) of the same compound?
Answer: 43.8 µM

Question: What about the TGI (T-47D breast) of the same compound?
Answer: 24.4 µM

Question: What about the TGI (PC-3 prostate) of the same compound?
Answer: 40.3 µM

Question: And the TGI (RPMI-8226 leukemia)?
Answer: 37 µM

Question: What about the TGI (HCC-2998 colon) of the same compound?
Answer: 30.2 µM

Question: And the TGI (HCT-116 colon)?
Answer: 29.4 µM

Question: What about the TGI (IGROV1 ovarian) of the same compound?
Answer: 32 µM

Question: What about the TGI (CAKI-1 renal) of the same compound?
Answer: > 100 µM

Question: And the TGI (A549 NSCLC)?
Answer: 45.2 µM

Question: And the TGI (BT-549 breast)?
Answer: 37 µM

Question: What about the TGI (SNB-19 CNS) of the same compound?
Answer: 43.2 µM

Question: What about the TGI (TK-10 renal) of the same compound?
Answer: 31.8 µM

Question: What about the TGI (MOLT-4 leukemia) of the same compound?
Answer: 31.7 µM

Question: And the TGI (UACC-257 melanoma)?
Answer: 34.9 µM

Question: What about the TGI (K-562 leukemia) of the same compound?
Answer: 26.5 µM

Question: What about the TGI (A498 renal) of the same compound?
Answer: 33.6 µM

Question: And the TGI (UACC-62 melanoma)?
Answer: 45.7 µM

Question: What about the TGI (NCI-H23 lung) of the same compound?
Answer: 44.8 µM

Question: What about the TGI (NCI-H522 lung) of the same compound?
Answer: 34.9 µM

Question: And the TGI (MDA-MB-231 breast)?
Answer: 29.8 µM

Question: What about the TGI (CCRF-CEM leukemia) of the same compound?
Answer: 33.7 µM

Question: What about the TGI (SN12C renal) of the same compound?
Answer: 36.6 µM

Question: What about the TGI (SK-MEL-2 melanoma) of the same compound?
Answer: 42.9 µM

Question: And the TGI (SK-MEL-5 melanoma)?
Answer: 26.9 µM

Question: And the TGI (SNB-75 CNS)?
Answer: 42 µM

Question: And the TGI (786-0 renal)?
Answer: 32.6 µM

Question: And the TGI (OVCAR-8 ovarian)?
Answer: 33.5 µM
